Test results as given in US11331326B2, “Composition for prevention or treatment of inflammatory skin diseases or severe pruritus comprising the aqueous solubilized ursodeoxycholic acid” (AMICOGEN PHARMA INC., priority 2016, dated 2022).
Values after ≈ are worked out from the molar mass of the structure shown.

Legend:
[1] = protonated form (pH 1 to 8); cited from earlier work
[2] = Solubility of ursodeoxycholic acid in water; assay type: physicochemical; details: pH 1 to 8
[3] = oral administration, crystalline form of UDCA; cited from earlier work
[4] = crystalline type of ursodeoxycholic acid; cited from earlier work

solubility relative to the commercialized UDCA [2]	Structure (SMILES)	solubility [1]	fraction absorbed at the ileum of the colon by the active transport mechanism [3]	acid dissociation constant, pKa [4]
about 10 times	C[C@H](CCC(=O)NCCS(=O)(=O)O)[C@H]1CC[C@H]2[C@@H]3[C@@H](O)C[C@@H]4C[C@H](O)CC[C@]4(C)[C@H]3CC[C@]12C [TUDCA, tauroursodeoxycholic acid]	450 µM (≈ 225 µg/mL)	–	–
–	C[C@H](CCC(=O)O)[C@H]1CC[C@H]2[C@@H]3[C@@H](O)C[C@@H]4C[C@H](O)CC[C@]4(C)[C@H]3CC[C@]12C [UDCA, ursodeoxycholic acid]	about 0.05 mM	up to 20 % of intakes	about 5.0
